The results in this text go back to patent US20240190876A1, “Tricyclic Urea Compounds As JAK2 V617F Inhibitors” (Incyte Corporation, priority 2022, published 2024).

A word on the IC50: it is the concentration needed to halve the response being measured. A high value points to a need for much substance.

Format in all cases: biochemical
In assay [1] the test system is KIT. As to the kind of experiment: KIT Enzymatic Assay. The settings on record: ratio KIT IC50 / JH2 V617F binding IC50. How it is done: (§1) The kinase assays were carried out at room temperature in assay buffer (HEPES 50 mM, pH 7.0, NaN3 0.02%, BSA 0.01%, Orthovanadate 0.1 mM, DTT 1 mM, MgCl2 10 mM) in a final volume of 10 μL. Testing compounds were prepared by serial dilution in DMSO and transferred to the plate wells by ECHO liquid handler (Labcyte) with 0.5% DMSO in the final assay. […]. Reactions were initiated by the addition of 5 μL ATP in assay buffer. The final 10 μL kinase reaction consists of 0.12 nM KIT, 1 mM ATP, 500 nM TK Substrate-biotin and SEB reagent 62.5 nM in assay buffer. […] The plates were then sealed and centrifuged at 1800 rpm for 2 minutes. After 60 minutes incubation at room temperature, the product activity was determined by measuring the fluorescence at 620 nm and 665 nm on Pherastar microplate reader (BMG Labtech). A ratio is calculated (665/620 nm) for each well. Wells with DMSO only were served as the positive controls and wells containing no ATP were used as negative controls. IC50 determination was performed by fitting the curve of percent control activity versus the log of the compound concentration using the GraphPad Prism 7.0 software.

Assay [2] addresses KIT (Homo sapiens, UniProt P10721). As to the kind of experiment: KIT Enzymatic Assay. The following applies: HTRF kinase assay, 1 mM ATP. How it is done:
as §1

Assay [3] concerns FLT3. As to the kind of experiment: FLT3 Enzymatic Assay. The settings on record: ratio FLT3 IC50 / JH2 V617F binding IC50. How it is done:
as §1, with “0.011” for “0.12”, “FLT3,” for “KIT,”

Assay [4] concerns the target T1, FLT3 (Homo sapiens, UniProt P36888).
T1 sequence (P36888 27-993): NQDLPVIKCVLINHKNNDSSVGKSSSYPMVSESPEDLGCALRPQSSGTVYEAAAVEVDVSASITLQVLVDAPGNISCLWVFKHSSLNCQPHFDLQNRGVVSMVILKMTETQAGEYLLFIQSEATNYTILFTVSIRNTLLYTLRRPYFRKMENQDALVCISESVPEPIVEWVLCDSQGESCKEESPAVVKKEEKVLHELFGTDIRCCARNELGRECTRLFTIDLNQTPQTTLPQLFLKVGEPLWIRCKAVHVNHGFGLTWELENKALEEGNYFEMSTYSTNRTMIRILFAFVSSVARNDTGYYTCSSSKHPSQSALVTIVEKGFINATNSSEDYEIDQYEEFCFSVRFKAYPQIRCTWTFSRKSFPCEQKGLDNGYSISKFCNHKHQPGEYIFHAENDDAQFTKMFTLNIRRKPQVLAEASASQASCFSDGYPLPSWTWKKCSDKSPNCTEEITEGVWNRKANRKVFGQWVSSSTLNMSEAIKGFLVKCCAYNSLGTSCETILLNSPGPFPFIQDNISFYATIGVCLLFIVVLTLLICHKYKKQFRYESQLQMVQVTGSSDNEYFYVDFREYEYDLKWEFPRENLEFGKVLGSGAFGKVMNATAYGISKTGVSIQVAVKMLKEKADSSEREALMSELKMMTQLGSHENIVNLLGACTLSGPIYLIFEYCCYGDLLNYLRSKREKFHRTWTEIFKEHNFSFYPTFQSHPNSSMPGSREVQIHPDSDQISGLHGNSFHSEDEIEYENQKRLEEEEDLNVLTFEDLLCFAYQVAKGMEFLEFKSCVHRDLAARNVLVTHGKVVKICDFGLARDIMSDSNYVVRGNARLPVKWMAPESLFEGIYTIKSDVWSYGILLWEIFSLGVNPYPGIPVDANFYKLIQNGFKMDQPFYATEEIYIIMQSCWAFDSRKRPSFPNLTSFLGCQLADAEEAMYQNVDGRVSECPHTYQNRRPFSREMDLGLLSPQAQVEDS
As to the kind of experiment: FLT3 Enzymatic Assay. The settings on record: HTRF kinase assay, 1 mM ATP. How it is done:
as §1, with “0.011” for “0.12”, “FLT3,” for “KIT,”
In general terms: In TR-FRET formats the signal depends on donor and acceptor labels being close together.

Sequence of KIT (Homo sapiens, UniProt P10721) (P10721 26-976, species assumed): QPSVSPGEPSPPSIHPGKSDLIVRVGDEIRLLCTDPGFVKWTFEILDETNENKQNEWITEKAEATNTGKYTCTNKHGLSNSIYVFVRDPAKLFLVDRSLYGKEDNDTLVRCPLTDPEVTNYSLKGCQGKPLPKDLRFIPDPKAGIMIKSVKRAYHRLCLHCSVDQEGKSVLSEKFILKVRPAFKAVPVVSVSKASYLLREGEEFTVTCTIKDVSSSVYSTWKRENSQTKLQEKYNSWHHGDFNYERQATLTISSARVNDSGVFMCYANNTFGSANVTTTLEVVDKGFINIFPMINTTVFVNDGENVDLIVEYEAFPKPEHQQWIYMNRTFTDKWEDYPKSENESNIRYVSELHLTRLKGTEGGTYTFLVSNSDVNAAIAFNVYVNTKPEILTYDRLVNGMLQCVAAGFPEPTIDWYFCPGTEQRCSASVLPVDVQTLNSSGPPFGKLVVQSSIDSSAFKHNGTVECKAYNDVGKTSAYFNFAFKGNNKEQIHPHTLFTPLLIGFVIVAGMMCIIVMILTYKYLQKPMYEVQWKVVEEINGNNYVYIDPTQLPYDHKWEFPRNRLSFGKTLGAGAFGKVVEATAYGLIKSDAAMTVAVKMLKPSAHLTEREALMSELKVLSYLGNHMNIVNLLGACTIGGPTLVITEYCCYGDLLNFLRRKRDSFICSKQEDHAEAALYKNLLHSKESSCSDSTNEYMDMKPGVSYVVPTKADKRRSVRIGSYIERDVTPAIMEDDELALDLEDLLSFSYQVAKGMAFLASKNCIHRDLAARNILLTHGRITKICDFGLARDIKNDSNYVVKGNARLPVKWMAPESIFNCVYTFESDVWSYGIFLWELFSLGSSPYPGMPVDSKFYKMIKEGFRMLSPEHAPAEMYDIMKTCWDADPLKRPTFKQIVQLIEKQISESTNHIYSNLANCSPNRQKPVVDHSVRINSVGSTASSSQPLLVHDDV

With `COc1ccc(-c2c(-c3cn(C)nc3OC)[nH]c3ncc4c(c23)n([C@H]2CC[C@@](C)(NC(=O)C3CC3)CC2)c(=O)n4C)cc1` [Example 1, N-((1s,4s)-4-(7-(3-Methoxy-1-methyl-1H-pyrazol-4-yl)-8-(4-methoxyphenyl)-3-methyl-2-oxo-3,6-dihydroimidazo[4,5-d]pyrrolo[2,3-b]pyridin-1(2H)-yl)-1-methylcyclohexyl)cyclopropanecarboxamide], the “Selectivity KIT/JH2 V617F” value in the assay on KIT [1] is listed as “****** (****** refers to selectivity of >12500-fold)”. The half-inhibitory concentration (IC50) at KIT [2] and against FLT3 [4] was more than 2500 nM each time. The “Selectivity FLT3/JH2 V617F” value with FLT3 [3] is “***** (***** refers to selectivity of >5000-fold to ≤12500-fold)”.

As to `[2H]C([2H])([2H])n1ncc2cc(-c3c(-c4cn(C)nc4OC)[nH]c4ncc5c(c34)n([C@H]3CC[C@@](C)(NC(=O)C4CC4)CC3)c(=O)n5C)ccc21` [Example 2, N-((1s,4s)-4-(7-(3-Methoxy-1-methyl-1H-pyrazol-4-yl)-3-methyl-8-(1-(methyl-d3)-1H-indazol-5-yl)-2-oxo-3,6-dihydroimidazo[4,5-d]pyrrolo[2,3-b]pyridin-1(2H)-yl)-1-methylcyclohexyl)cyclopropanecarboxamide], in the assay on KIT [1], the “Selectivity KIT/JH2 V617F” value was “****** (****** refers to selectivity of >12500-fold)”. Further, the IC50 is more than 2500 nM against KIT [2] and 1250 to 2500 nM on FLT3 [4]. For the same compound, in the assay with FLT3 [3], the “Selectivity FLT3/JH2 V617F” value is recorded as “****** (****** refers to selectivity of >12500-fold)”.

On to `[2H]C([2H])([2H])n1cc(-c2[nH]c3ncc4c(c3c2-c2ccc(OC)cc2)n([C@H]2CC[C@@](C)(NC(=O)C3CC3)CC2)c(=O)n4C)c(F)n1` [Example 3, N-((1s,4s)-4-(7-(3-fluoro-1-(methyl-d3)-1H-pyrazol-4-yl)-8-(4-methoxyphenyl)-3-methyl-2-oxo-3,6-dihydroimidazo[4,5-d]pyrrolo[2,3-b]pyridin-1(2H)-yl)-1-methylcyclohexyl)cyclopropanecarboxamide], for which the “Selectivity KIT/JH2 V617F” value in the assay with KIT [1] is listed as “**** (**** refers to selectivity of >1750-fold to ≤5000-fold)”. In addition, the IC50 against KIT [2] and against FLT3 [4] was 250 to 1250 nM in each case. Besides, the “Selectivity FLT3/JH2 V617F” value in the assay with FLT3 [3] is “** (** refers to selectivity of >500-fold to ≤1500-fold)”.

Consider `[2H]C([2H])([2H])n1cc(-c2[nH]c3ncc4c(c3c2-c2ccc3c(cnn3C([2H])([2H])[2H])c2)n([C@H]2CC[C@@](C)(NC(=O)C3CC3)CC2)c(=O)n4C)c(F)n1` [Example 4, N-((1s,4s)-4-(7-(3-fluoro-1-(methyl-d3)-1H-pyrazol-4-yl)-3-methyl-8-(1-(methyl-d3)-1H-indazol-5-yl)-2-oxo-3,6-dihydroimidazo[4,5-d]pyrrolo[2,3-b]pyridin-1(2H)-yl)-1-methylcyclohexyl)cyclopropanecarboxamide], for which the “Selectivity KIT/JH2 V617F” value in the assay on KIT [1] is recorded as “**** (**** refers to selectivity of >1750-fold to ≤5000-fold)”. Further, the IC50 against KIT [2] and against FLT3 [4] was 250 to 1250 nM throughout. Also, the “Selectivity FLT3/JH2 V617F” value in the assay with FLT3 [3] was “*** (*** refers to selectivity of >1500-fold to ≤1750-fold)”.

Consider `[2H]C([2H])([2H])n1ncc2cc(-c3c(-c4cn(CC)nc4F)[nH]c4ncc5c(c34)n([C@H]3CC[C@@](C)(NC(=O)C4CC4)CC3)c(=O)n5C)ccc21` [Example 5, N-((1s,4s)-4-(7-(1-Ethyl-3-fluoro-1H-pyrazol-4-yl)-3-methyl-8-(1-(methyl-d3)-1H-indazol-5-yl)-2-oxo-3,6-dihydroimidazo[4,5-d]pyrrolo[2,3-b]pyridin-1(2H)-yl)-1-methylcyclohexyl)cyclopropanecarboxamide], for which the “Selectivity KIT/JH2 V617F” value in the assay with KIT [1] is recorded as “**** (**** refers to selectivity of >1750-fold to ≤5000-fold)”. Besides, the IC50 against KIT [2] lay within 250 to 1250 nM; against FLT3 [4], 25 to 250 nM. For the same compound, the “Selectivity FLT3/JH2 V617F” value with FLT3 [3] is “** (** refers to selectivity of >500-fold to ≤1500-fold)”.

`[2H]C([2H])([2H])n1cc(-c2[nH]c3ncc4c(c3c2-c2ccc(OC)cc2)n([C@H]2CC[C@@](C)(NC(=O)[C@H]3C[C@H]3F)CC2)c(=O)n4C([2H])([2H])[2H])c(F)n1` [Example 6, (1R,2R)-2-Fluoro-N-((1s,4S)-4-(7-(3-fluoro-1-(methyl-d3)-1H-pyrazol-4-yl)-8-(4-methoxyphenyl)-3-(methyl-d3)-2-oxo-3,6-dihydroimidazo[4,5-d]pyrrolo[2,3-b]pyridin-1(2H)-yl)-1-methylcyclohexyl)cyclopropane-1-carboxamide]: in the assay with KIT [1], the “Selectivity KIT/JH2 V617F” value is given as “***** (***** refers to selectivity of >5000-fold to ≤12500-fold)”. The results for the IC50 on KIT [2] and on FLT3 [4] were 250 to 1250 nM and 25 to 250 nM, respectively. Also, the “Selectivity FLT3/JH2 V617F” value in the assay with FLT3 [3] was “** (** refers to selectivity of >500-fold to ≤1500-fold)”.
